Measured values: patent publication US9408871B2, “Methods for inhibiting complement activation and uses thereof” (THE UNIVERSITY OF BRITISH COLUMBIA, priority 2013, dated 2016)

Assays:
C5b,6 = biological target: T1, C5b,6 (Homo sapiens, UniProt P01031+P13671); assay: analytic gel filtration; assay type: binding; conditions: 10 mM
T1 construct: C5 convertase that cleaves C5 into C5a and C5b; human plasma-derived C5b,6, C7, C8, and C9; purchased Complement Technology, Inc. (Tyler, Tex., USA); host or cells: human plasma
T1 sequence (P01031 19-673 limits assumed): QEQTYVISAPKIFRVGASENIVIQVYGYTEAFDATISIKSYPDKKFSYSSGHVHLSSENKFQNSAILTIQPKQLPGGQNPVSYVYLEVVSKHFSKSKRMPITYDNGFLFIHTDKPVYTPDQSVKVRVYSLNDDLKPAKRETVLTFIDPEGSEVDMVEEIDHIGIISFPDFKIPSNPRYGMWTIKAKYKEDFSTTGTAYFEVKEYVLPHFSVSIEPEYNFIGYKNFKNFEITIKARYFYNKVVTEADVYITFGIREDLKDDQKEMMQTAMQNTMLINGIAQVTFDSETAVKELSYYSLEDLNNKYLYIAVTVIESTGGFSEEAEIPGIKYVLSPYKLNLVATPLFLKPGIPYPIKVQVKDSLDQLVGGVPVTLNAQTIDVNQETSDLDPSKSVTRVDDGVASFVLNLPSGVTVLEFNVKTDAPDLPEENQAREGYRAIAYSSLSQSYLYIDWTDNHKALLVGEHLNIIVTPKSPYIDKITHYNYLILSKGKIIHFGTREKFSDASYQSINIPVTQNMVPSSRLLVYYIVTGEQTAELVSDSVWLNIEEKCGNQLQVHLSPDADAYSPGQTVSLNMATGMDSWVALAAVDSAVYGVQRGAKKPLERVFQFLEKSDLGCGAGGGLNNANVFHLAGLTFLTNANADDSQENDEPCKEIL
T1 sequence (P01031 752-1676 limits assumed): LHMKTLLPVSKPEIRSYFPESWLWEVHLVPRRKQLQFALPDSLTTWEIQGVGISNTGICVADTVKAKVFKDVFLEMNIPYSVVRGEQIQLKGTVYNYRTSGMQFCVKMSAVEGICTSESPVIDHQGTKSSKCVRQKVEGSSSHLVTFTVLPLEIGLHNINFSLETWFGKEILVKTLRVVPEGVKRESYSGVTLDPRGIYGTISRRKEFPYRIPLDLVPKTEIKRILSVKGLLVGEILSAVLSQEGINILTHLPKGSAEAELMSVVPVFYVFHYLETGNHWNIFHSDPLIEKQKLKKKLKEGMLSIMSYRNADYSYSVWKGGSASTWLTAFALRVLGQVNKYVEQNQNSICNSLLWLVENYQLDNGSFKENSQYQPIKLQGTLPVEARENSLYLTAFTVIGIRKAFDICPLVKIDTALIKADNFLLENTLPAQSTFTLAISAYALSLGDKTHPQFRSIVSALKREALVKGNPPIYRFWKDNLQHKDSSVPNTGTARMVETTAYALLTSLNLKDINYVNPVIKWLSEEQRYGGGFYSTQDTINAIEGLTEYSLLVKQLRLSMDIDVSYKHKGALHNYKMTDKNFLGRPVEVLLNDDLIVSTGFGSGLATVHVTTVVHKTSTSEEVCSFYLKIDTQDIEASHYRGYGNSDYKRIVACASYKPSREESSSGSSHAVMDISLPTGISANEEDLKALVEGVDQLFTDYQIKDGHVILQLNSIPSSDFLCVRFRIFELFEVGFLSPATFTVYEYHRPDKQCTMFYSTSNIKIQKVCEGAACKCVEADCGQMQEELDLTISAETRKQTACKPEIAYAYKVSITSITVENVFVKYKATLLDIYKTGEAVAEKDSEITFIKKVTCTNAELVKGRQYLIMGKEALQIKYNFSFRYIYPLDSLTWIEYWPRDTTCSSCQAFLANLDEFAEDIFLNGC
T1 sequence (P13671 22-934): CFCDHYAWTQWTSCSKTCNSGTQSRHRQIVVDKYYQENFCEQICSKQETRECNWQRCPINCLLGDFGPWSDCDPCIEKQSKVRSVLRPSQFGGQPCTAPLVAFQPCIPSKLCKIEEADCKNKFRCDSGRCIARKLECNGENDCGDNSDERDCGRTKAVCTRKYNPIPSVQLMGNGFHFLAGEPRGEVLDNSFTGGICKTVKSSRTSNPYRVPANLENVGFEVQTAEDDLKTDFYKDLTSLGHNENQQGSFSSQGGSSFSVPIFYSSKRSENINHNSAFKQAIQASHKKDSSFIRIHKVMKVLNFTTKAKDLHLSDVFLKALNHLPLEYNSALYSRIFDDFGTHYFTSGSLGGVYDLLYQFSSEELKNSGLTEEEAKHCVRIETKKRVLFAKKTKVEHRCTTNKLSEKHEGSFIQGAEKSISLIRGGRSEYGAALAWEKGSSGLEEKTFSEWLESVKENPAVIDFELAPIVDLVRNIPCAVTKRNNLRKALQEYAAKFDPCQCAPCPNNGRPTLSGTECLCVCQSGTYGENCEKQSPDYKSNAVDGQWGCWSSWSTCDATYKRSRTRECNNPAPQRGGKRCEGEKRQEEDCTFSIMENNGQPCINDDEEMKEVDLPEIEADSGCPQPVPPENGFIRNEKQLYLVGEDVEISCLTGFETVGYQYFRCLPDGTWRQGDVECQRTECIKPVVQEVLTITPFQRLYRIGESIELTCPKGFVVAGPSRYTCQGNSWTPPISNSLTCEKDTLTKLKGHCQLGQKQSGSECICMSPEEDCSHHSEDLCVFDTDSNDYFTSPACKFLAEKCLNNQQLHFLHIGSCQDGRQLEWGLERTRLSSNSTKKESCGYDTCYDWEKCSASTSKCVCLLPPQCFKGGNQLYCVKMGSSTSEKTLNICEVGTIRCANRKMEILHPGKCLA
Protocol: Proteins were stored in their stock solution buffers. The C5b,6 buffer consisted of 10 mM HEPES, 120 mM NaCl, pH 7.2. The C7 buffer consisted of 10 mM Na3PO4, 145 mM NaCl, at pH 7.3 (PBS). The buffers were filtered through a 0.22 μm pore diameter Stericup and Steritop Express™ PLUS filter from Millipore (Billerica, Mass., USA).
Proteins were thawed at 37° C. for 10 min. An excess amount of protein was removed from the stock vial and transferred to a clean 600 μL microtube. C7 was diluted to […]. The proteins were centrifuged at 20,817 g for 15 min and under a Class 2A Biosafety Cabinet, 100 μL fractions were transferred to clean microtubes. The following samples were analyzed by gel filtration:
For all samples, 20 μg of the protein in 100 μL of their respective buffers was prepared. For samples containing polyphosphate, 8 μL of 400 mM polyP>1000 was mixed with 2 μL of 5× concentrated HBS (for C5b,6) or PBS (for C7), yielding a solution of 320 mM polyP>1000 in HBS or PBS. 3.13 μL of the polyphosphate solution was added to 100 μL of either C5b,6 or C7, for a final polyP>1000 concentration of 9.71 mM. […]
The gel filtration apparatus, ÄKTAmicro System from G.E. Healthcare (Buckinghamshire, UK), was equilibrated with either HBS (0.22 μm filtered) for C5b,6 or PBS (0.22 μm filtered) for C7 for at least 1 hour, at 5 μL per minute. […] Protein was monitored with UV absorbance at 280 nm. […]

[1] = tested on: choroidal neovascularization; assay: experimental laser-induced choroidal neovascularization (CNV) model, retina whole mounts; assay type: in vivo; conditions: rat, intravitreal injection 10′ after laser, final estimated concentration 200 μM, 5 days
Protocol: Eleven-week-old female Long Even (LE) rats (Charles River Laboratory, Wilmington, Mass.) weighing 256 to 315 g were used. The animals were handled in accordance with institutional guidelines and the ARVO Statement for the Use of Animals in Ophthalmic and Vision Research. The rats were anesthetized by intramuscular injection of a 1 mL/kg mixture (1:1) of ketamine hydrochloride (40 mg/kg) and xylazine hydrochloride (10 mg/ml), and their pupils were dilated with tropicamide (0.5% Mydrin). Experimental choroidal neovascularization (CNV) was created as described previously (Takehana et al., Invest Ophthalmol Vis Sci, 1999, 40 (2):459-66). […]
After laser treatment, under anesthesia, intravitreal injections were performed on a lasered eye under a dissecting microscope (Stereo dissection microscope, SMZ 1000; Nikon, Tokyo, Japan). […] After the procedure, animals were monitored in a recovery enclosure until they resumed baseline normal activity levels. […]
Each eye cup flatmount preparation was analyzed using a confocal laser-scanning microscope (Zeiss-LSM 510 META). […] Intensity and size of GSL-IB4 and C5b-9 immunohistochemistry were analyzed using image-processing and image-analysis software Image J 1.37 (developed by Wayne Rasband, National Institute of Health, Bethesda, Md., USA). […]

O=P(O)(O)O [P1, Orthophosphate]
effect on C5b,6 elution profile in gel filtration (C5b,6): did not affect the retention time or elution profile
neovascularization and deposition of MAC on retina after laser injury [1]: is not protective
